Patent US20260007601A1, “IONIZABLE CATIONIC LIPID COMPOUND AND COMPOSITION FOR DELIVERING NUCLEIC ACID AND USE THEREOF” (BEIJING YOUCAREKECHUANG PHARMACEUTICAL TECHNOLOGY CO., LTD., priority 2023, published 2026)

Key:
293T cells [1] = test: Fluorescence detection of Fluc-mRNA (cell transfection efficiency of LNP formulations); assay type: cell-based; details: for Relative light unit (RLU): LNP containing 0.3 μg Fluc-mRNA, 24 hours; for Multiples of values that equivalent to YK-201: RLU of YK-201 / RLU of the named lipid; for Multiples of values that equivalent to YK-202: RLU of YK-202 / RLU of the named lipid; for Multiples of values that equivalent to YK-209: RLU of YK-209 / RLU of the named lipid
Method in brief: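 293T cells at 10,000 per well, adhered overnight, then given LNPs carrying 0.3 μg Fluc-mRNA (cationic:neutral:structured:polymer-conjugated lipid 49:10:39.5:1.5 molar). After 24 h, luciferase signal read with luciferase kit reagents on an IVIS imaging system as transfection efficiency.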

293T cells [2] = test: Cell survival rate assay (CCK-8); assay type: cell-based; details: for Cell survival rate: LNP containing 1.5 μg Fluc-mRNA, 24 hours, CCK-8
Method in brief: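 293T cells seeded at 10,000 per well and grown overnight, then exposed for 24 h to LNPs (cationic/neutral/structured/PEG lipids 49:10:39.5:1.5) carrying 1.5 μg Fluc-mRNA, or Lipofectamine 3000. Viability read by CCK-8, 1 h incubation, absorbance at 450 nm.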

[3] = Particle size and polydispersity index (PDI) of nanolipid particles, dynamic light scattering; assay type: physicochemical; details: LNP formulation prepared from the named cationic lipid, 25° C
Method: The particle size and polydispersity index (PDI) were determined by dynamic light scattering method using a Malvern laser particle size analyzer. 10 μL of liposome solution was diluted to 1 mL with RNase-free deionized water and added to a sample pool. Each sample was measured three times. The measurement conditions were: 90° scattering angle, 25° C.

[4] = Encapsulation rate, drug loading concentration and total RNA concentration detection (RiboGreen); assay type: physicochemical; details: for Drug loading concentration / Encapsulation rate / Total RNA concentration: LNP formulation of the named lipid
female BALB/C mice = test: Mouse in vivo imaging of Fluc-mRNA LNP formulations; parameters: average radiation intensity (mRNA expression): unit not given here; details: for average radiation intensity (mRNA expression): 10 μg Fluc-mRNA LNP intramuscularly
Method in brief: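 Female BALB/C mice (4–6 weeks, 17–19 g) received LNP carrying 10 μg Fluc-mRNA intramuscularly. Imaging substrate given intraperitoneally at 6 h, 24 h, 48 h and 7 d; after 5 min free movement, average radiance read by IVIS Spectrum imaging.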

CCCCCCCCCCCOC(=O)CCCCCN(CCCCCCCC(=O)OC(CCCCCCC)CCCCCCC)CCN(C)CCO [YK-206]
RLU / cell transfection efficiency, times that of ALC-0315 (293T cells [1]; Fluc-mRNA LNP): 9 times
RLU / cell transfection efficiency, times that of HHMA (293T cells [1]; Fluc-mRNA LNP): 10 times
RLU / cell transfection efficiency, times that of Lipofectamine 3000 (293T cells [1]; Fluc-mRNA LNP): 17 times
RLU / cell transfection efficiency, times that of YK-009 (293T cells [1]; Fluc-mRNA LNP): 4 times
RLU / cell transfection efficiency, times that of compound 21 (293T cells [1]; Fluc-mRNA LNP): 14 times
RLU / cell transfection efficiency, times that of compound 23 (293T cells [1]; Fluc-mRNA LNP): 15 times
fluorescence absorption value / cell transfection efficiency, times that of YK-205 (293T cells [1]; Fluc-mRNA LNP): 20.29 times
Relative light unit (RLU) (293T cells [1]): 21058746 RLU
Multiples of values that equivalent to YK-201 (293T cells [1]): 1.35
Multiples of values that equivalent to YK-202 (293T cells [1]): 1.42
Multiples of values that equivalent to YK-209 (293T cells [1]): 1.28
Cell survival rate (293T cells [2]): 74.57%
cell survival rate higher than that of ALC-0315 (293T cells [2]; difference of rates): 24.61%
cell survival rate higher than that of HHMA (293T cells [2]; difference of rates): 9.01%
cell survival rate higher than that of Lipofectamine 3000 (293T cells [2]; difference of rates): 51.52%
cell survival rate higher than that of SM-102 (293T cells [2]; difference of rates): 6.02%
cell survival rate higher than that of compound 21 (293T cells [2]; difference of rates): 5.55%
cell survival rate higher than that of compound 23 (293T cells [2]; difference of rates): 4.47%
PDI [3]: 18.8%
Particle size [3]: 216 nm
drug loading concentration, times that of ALC-0315 [4]: 1.46 times
drug loading concentration, times that of HHMA [4]: 1.24 times
drug loading concentration, times that of SM-102 [4]: 1.50 times
drug loading concentration, times that of YK-009 [4]: 1.42 times
drug loading concentration, times that of compound 21 [4]: 1.69 times
drug loading concentration, times that of compound 23 [4]: 1.84 times
total RNA concentration, times that of ALC-0315 [4]: 1.12 times
total RNA concentration, times that of HHMA [4]: 1.10 times
total RNA concentration, times that of SM-102 [4]: 1.18 times
total RNA concentration, times that of YK-009 [4]: 1.08 times
total RNA concentration, times that of compound 21 [4]: 1.36 times
total RNA concentration, times that of compound 23 [4]: 1.28 times
Drug loading concentration [4]: 38.09 µg/mL
Encapsulation rate [4]: 91.4%
Total RNA concentration [4]: 41.69 µg/mL
encapsulation rate higher than that of ALC-0315 ([4]; difference of rates): 28.60%
encapsulation rate higher than that of HHMA ([4]; difference of rates): 30.90%
encapsulation rate higher than that of SM-102 ([4]; difference of rates): 29.10%
encapsulation rate higher than that of YK-009 ([4]; difference of rates): 28.40%
encapsulation rate higher than that of compound 21 ([4]; difference of rates): 33.60%
encapsulation rate higher than that of compound 23 ([4]; difference of rates): 36.20%
average radiation intensity (mRNA expression) (female BALB/C mice; 6 h): 2068900
average radiation intensity (mRNA expression) (female BALB/C mice; 24 h): 1553050
average radiation intensity (mRNA expression) (female BALB/C mice; 48 h): 500150
average radiation intensity (mRNA expression) (female BALB/C mice; 7 d): 23015
mRNA expression level in mice can reach, times that of ALC-0315 (female BALB/C mice; time point not stated): 13 times
mRNA expression level in mice can reach, times that of HHMA (female BALB/C mice; time point not stated): 16 times
mRNA expression level in mice can reach, times that of SM-102 (female BALB/C mice; time point not stated): 16 times
mRNA expression level in mice can reach, times that of compound 21 (female BALB/C mice; time point not stated): 16 times
mRNA expression level in mice can reach, times that of compound 23 (female BALB/C mice; time point not stated): 16 times

CCCCCCCCC(CCCCCCCC)COC(=O)CCCCCN(CCCCCC(=O)OCC(CCCCCCCC)CCCCCCCC)CCN(C)CCNC [YK-223]
Relative light unit (RLU) (293T cells [1]): 75012 RLU
Multiples of values that equivalent to YK-201 (293T cells [1]): 379.71
Multiples of values that equivalent to YK-202 (293T cells [1]): 399.37
Multiples of values that equivalent to YK-209 (293T cells [1]): 280.74
Ratio relative to SM-102 (293T cells [1]; RLU of the named lipid / RLU of SM-102, times that of SM-102): 0.05
Cell survival rate (293T cells [2]): 36.64%
PDI [3]: 25.8%
Particle size [3]: 211 nm
Drug loading concentration [4]: 37.51 µg/mL
Encapsulation rate [4]: 98.3%
Total RNA concentration [4]: 38.16 µg/mL
average radiation intensity (mRNA expression) (female BALB/C mice; 6 h): 10355
average radiation intensity (mRNA expression) (female BALB/C mice; 24 h): 1786
average radiation intensity (mRNA expression) (female BALB/C mice; 48 h): 678
average radiation intensity (mRNA expression) (female BALB/C mice; 7 d): 440
